Source: patent publication US9598434B2, “Benzazepine compound” (Astellas Pharma Inc., priority 2010, dated 2017)
Read-outs that look alike come from different tables or passages of the source.

Legend:
human 5-HT2C receptor = target: T1, human 5-HT2C receptor (Homo sapiens, UniProt P28335); test: Evaluation of 5-HT2C receptor agonist activity (intracellular calcium increase, FLIPR, CHO cells stably expressing the receptor); format: cell-based; conditions: for Emax: read-out: 5-HT2C agonist activity Emax
T1 construct: expressed in transfected cells
T1 sequence (P28335 33-458): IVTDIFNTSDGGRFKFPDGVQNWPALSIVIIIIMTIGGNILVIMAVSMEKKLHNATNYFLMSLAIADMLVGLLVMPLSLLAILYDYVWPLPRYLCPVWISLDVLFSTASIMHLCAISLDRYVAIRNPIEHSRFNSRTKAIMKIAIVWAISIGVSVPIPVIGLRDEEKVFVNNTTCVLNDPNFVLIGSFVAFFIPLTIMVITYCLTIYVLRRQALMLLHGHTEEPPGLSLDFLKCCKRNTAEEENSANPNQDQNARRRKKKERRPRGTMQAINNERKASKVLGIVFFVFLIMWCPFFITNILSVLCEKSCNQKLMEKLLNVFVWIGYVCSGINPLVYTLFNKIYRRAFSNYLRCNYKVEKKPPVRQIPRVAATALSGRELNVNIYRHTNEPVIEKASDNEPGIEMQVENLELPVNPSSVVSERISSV
Experimental: The agonist activity of the compound of the formula (I) on the 5-HT2C receptor was confirmed by the method shown below.
The human 5-HT2C receptor agonist activity was evaluated by measuring the increase of the ligand-dependent intracellular calcium concentration. CHO cells which stably expressing a human 5-HT2C receptor were used. The receptor-expressing cells were prepared by transfecting the genes of the human 5-HT2C receptor (Accession numbers: AF498983 (5-HT2C)) into CHO cells (dihydrofolic acid-deficient strain, DS Pharma Biomedical Co., Ltd.)) using a pEF-BOS vector (Nucleic Acids Research, vol. 18, No. 17). After transcription, the 5-HT2C is known to be subjected to RNA editing to cause differences in three kinds of amino acids, resulting in fourteen receptor isoforms. Among them, cells stably expressing an INI type of 5-HT2C receptor which had not been subjected to editing were used. Cells used for evaluation were cultured in a 10% fetal bovine serum (FBS)-containing medium (trade name: α-MEM, Invitrogen) at 37° C. and 5% carbon dioxide. On the day before the evaluation, the cells were suspended in a serum-free medium (trade name: CD-CHO, Invitrogen) containing 8 mM L-glutamine (trade name: L-glutamine 200 mM, Invitrogen, added to the medium at a final concentration of 8 mM) and dispensed into a 96-well poly-D-lysine-coated plate (trade name: Biocoat PDL96W Black/Clear, Japan Becton, Dickinson and Company)) at 4×10^4 cells/well and cultured at 37° C. and 5% carbon dioxide overnight. A solution including a washing solution (mixture of Hank's Balanced Salt Solution (HBSS)-sodium hydroxide (NaOH), 20 mM 2-[4-(2-hydroxyethyl)-1-piperazinyl]ethanesulfonic acid (HEPES)-sodium hydroxide (NaOH), 2.5 mM probenecid, and 0.1% bovine serum albumin (BSA)), and a 4 μM fluorescent reagent (trade name: Fluo4-AM, Dojindo Co., Ltd.) was used as a loading buffer and the medium of the 96-well plate which had been cultured overnight was replaced with a loading buffer. After leaving to stand (with light-shielding) at room temperature for 3 hours, the cells were washed with a plate washer (trade name: ELx405, BioTek Instruments, Inc.) in which a washing solution had been set up. The plates of the washed cells were set up in a system for measuring a calcium (Ca) concentration in a cell (trade name: FLIPR, Molecular Devices, Inc.). In this device, a test compound that had been dissolved in dimethyl sulfoxide and diluted in the washing solution at a predetermined concentration was added and set up to measure a change in the Ca concentrations in a cell. The difference between a maximum value and a minimum value in the change of the intracellular Ca concentration was determined and kept as measurement data.
Taking the maximum reaction of the 5-HT (agonist action with addition of 5-HT 10 μM) as 100% and the reaction of a solvent alone as 0%, the efficacy (Emax (%)) and potency (EC50 (nM)) of the present invention compound to the maximum reaction of the 5-HT were calculated with a logistic regression method.

[1] = tested on: Hartley female guinea pigs; test: Measurement of external urethral sphincter electromyography; format: in vivo, guinea pig; conditions: Cavia porcellus; intravenous administration at 3 mg/kg; urethane-anesthetized guinea pigs; activity after solvent taken as 100%; read-out: external urethral sphincter electromyography activity
Description: The activating action of the compound of the formula (I) on the urethral sphincter electromyography was confirmed with the method shown below.
Hartley female guinea pigs with a body weight of 250 to 350 g were anesthetized with urethane (Sigma). The guinea pigs were fixed in a supine position and catheters (PE-50; Clay Adams) for administration of test compounds were inserted into the jugular vein. Further, a catheters (PE-160; Clay Adams), for an infusion of physiological saline into bladder and measurement of the intravesical pressure, were inserted through an incision into the dome of the bladder. Further, in order to measure the external urethral sphincter electromyography, two electrodes were inserted into both the left and right sides of the urethral opening to the urethral sphincter. The electrodes for measuring base voltages were placed under the skin of the hind part. The bladder catheter was branched over a three-way stopcock, and one was connected with a 50 mL syringe (Terumo) fixed to an infusion pump (Terumo). The other was connected to a pressure transducer (DX-100; Nihon Kohden Corporation) to transfer the signal of the transducer through an amplifier (AP-630G; Nihon Kohden Corporation) and a data acquisition system (PowerLab; AD Instruments) to a computer and record on a hard disk. The electrodes for electromyography measurement were connected to a control unit (JB-101J; Nihon Kohden Corporation) to transfer the signal through an amplifier (AP-651J; Nihon Kohden Corporation) and a data acquisition system (PowerLab; AD Instruments) to a computer and record on a hard disk. Further, the data were analyzed on the computer using a software (Chart; AD Instruments). […] The electromyography activity was analyzed by taking the lowest potential amplitude as a standard during the stabilization period and using the firing frequency over the standard amplitude as an indicator. At internals between the respective urinations (urine filling phase), the activity of the urethral sphincter electromyography was analyzed and its average value was calculated. After the stabilization period, the solvent and the test compound were administered at an increased dose at an interval of 40 minutes through the catheter placed into the jugular vein. The urethral sphincter electromyography activity after the administration of the solvent was taken as 100% and the urethral sphincter electromyography activity after the administration of the test compound was denoted as a percentage (%) of the electromyography activity after the administration of the solvent.

[2] = CHO cells stably expressing INI type human 5-HT2C receptor, intracellular Ca increase, logistic regression, read-out: 5-HT2C agonist activity EC50
[3] = maximum reaction of 5-HT (10 μM) taken as 100%, solvent alone as 0%, CHO cells expressing INI type human 5-HT2C receptor

| Emax (human 5-HT2C receptor; [3]) [%] | Structure (SMILES) | melting point [°C] | EC50 (human 5-HT2C receptor; [2]) [nM] | Emax (human 5-HT2C receptor; CHO) [%] | response vs control in vivo at 3 mg/kg [1] [%] | EC50 (human 5-HT2C receptor) [nM] |
| --- | --- | --- | --- | --- | --- | --- |
|  | COCCN1CCOc2cc3c(c(-c4cccc(C)c4)c21)CCNCC3.O=C(O)/C=C/C(=O)O [Example 78] | 173 to 176 | 36 | 98 |  |  |
|  | CO[C@H](CF)CN1CCOc2cc3c(c(C4CC4)c21)CCNCC3 [Example 287] |  | 1 | 97 | ≥ 200 |  |
|  | CCOC(=O)N1CCCc2cc3c(c(C)c21)CCNCC3.O=C(O)C(=O)O [Example 108] | 185 to 186 | 5.9 | 106 |  |  |
|  | O=C(O)/C=C/C(=O)O.c1ccc(N2CCOc3cc4c(cc32)CCNCC4)cc1 [Example 92] | 220 to 222 | 79 | 84 |  |  |
|  | COCC1(CN2CCOc3cc4c(c(C5CC5)c32)CCNCC4)CC1 [Example 105] | 166 to 167 | 8 | 111 |  |  |
|  | COCCN1CCCc2cc3c(c(C4CC4)c21)CCNCC3 [Example 81] |  | 0.84 | 114 | ≥ 200 |  |
|  | Clc1c2c(cc3c1N(CC1CCCC1)CCC3)CCNCC2 [Example 45] | 151 to 153 |  | 107 |  | 3.9 |
|  | COCCN1CCOc2cc3c(c(Br)c21)CCNCC3 [Example 135] |  | 2.9 | 112 | ≥ 200 |  |
|  | CC(=O)N1CCCc2cc3c(cc21)CCNCC3.O=C(O)/C=C/C(=O)O [Example 33] | 159 to 162 | 32.9 | 94 |  |  |
| 97 | c1c2c(c(C3CC3)c3c1OCCN3)CCNCC2 [Example 36] | 193 to 197 | 12 |  |  |  |
|  | COCCN1CCOc2cc3c(c(C)c21)CCNCC3.O=C(O)/C=C/C(=O)O [Example 90] | 166 to 170 | 8.3 | 113 |  |  |
|  | Clc1c2c(cc3c1N(CC1CCC1)CCC3)CCNCC2 [Example 42] | 141 to 143 |  | 97 |  | 1.9 |
|  | CC1CNc2cc3c(cc2O1)CCNCC3 (stereo not shown) [Example 50] | 193 to 194 |  | 98 |  | 68 |
|  | CCc1c2c(cc3c1N(CCOC)CCO3)CCNCC2.O=C(O)/C=C/C(=O)O [Example 98] | 159 to 163 | 4.4 | 107 |  |  |
|  | N#Cc1cc(F)c(OCCN2CCOc3cc4c(c(C5CC5)c32)CCNCC4)c(F)c1 [Example 297] |  | 0.71 | 96 | ≥ 200 |  |
|  | CC(C)OCCN1CCOc2cc3c(cc21)CCNCC3 [Example 76] |  | 1.9 | 116 |  |  |
|  | Fc1ccc(F)c(CN2CCOc3cc4c(c(C5CC5)c32)CCNCC4)c1 [Example 283] |  | 1.7 | 90 | ≥ 200 |  |
| 112 | c1c2c(cc3c1OCCN3CC1CC1)CCNCC2 [Example 56] | 179 to 182 | 3.2 |  |  |  |
|  | COCCN1c2c(cc3c(c2C2CC2)CCNCC3)OC[C@@H]1C [Example 292] |  | 0.65 | 93 | ≥ 200 |  |

| Emax (human 5-HT2C receptor; [3]) [%] | Structure (SMILES) | melting point [°C] | EC50 (human 5-HT2C receptor; [2]) [nM] | Emax (human 5-HT2C receptor; CHO) [%] | response vs control in vivo at 3 mg/kg [1] [%] | EC50 (human 5-HT2C receptor) [nM] |
| --- | --- | --- | --- | --- | --- | --- |
|  | CC(C)CN1CCCc2cc3c(cc21)CCNCC3 [Example 38] |  | 2.1 | 94 | ≥ 200 |  |
|  | CC(C)CN1CCCc2cc3c(c(Cl)c21)CCNCC3.O=C(O)/C=C/C(=O)O [Example 2, 11-chloro-1-isobutyl-2,3,4,6,7,8,9,10-octahydro-1H-azepino[4,5-g]quinoline monofumarate] | 159 to 163 | 0.64 | 99 |  |  |
|  | CCCN1C(=O)CCc2cc3c(c(-c4ccccc4)c21)CCNCC3.O=C(O)CCC(=O)O | 196 to 200 |  |  |  |  |
|  | CN1CCC(C)(C)c2cc3c(cc21)CCNCC3.O=C(O)/C=C/C(=O)O | 197 to 200 |  |  |  |  |
|  | CCc1c2c(cc3c1N(C)CCO3)CCNCC2 [Example 226] | 184 to 185 |  |  |  |  |
|  | O=C(O)CCC(=O)O.O=C(OCCc1cccc(Cl)c1)N1CCOc2cc3c(cc21)CCNCC3 | 160 to 162 |  |  |  |  |
|  | CCNC(=O)N1CCCc2cc3c(cc21)CCNCC3.O=C(O)/C=C/C(=O)O | 174 to 176 |  |  |  |  |
|  | CCN1CCCc2cc3c(c(Cl)c21)CCNCC3.Cl [Example 16] | 221 to 223 |  | 109 |  | 1.5 |
|  | O=C(O)CCC(=O)O.O=C(OCCc1ccccc1Cl)N1CCOc2cc3c(cc21)CCNCC3 | 169 to 170 |  |  |  |  |
|  | CCCN1CCOc2cc3c(c(C4CC4)c21)CCNCC3.O=C(O)/C=C/C(=O)O | 138 to 141 |  |  |  |  |
|  | O=C(O)CCC(=O)O.O=C1COc2cc3c(cc2N1Cc1cccc(Cl)c1)CCNCC3 | 192 to 194 |  |  |  |  |
|  | O=C(O)/C=C/C(=O)O.O=C(OCCc1ccccc1)N1CCOc2c1cc1c(c2-c2cccs2)CCNCC1 | 215 to 216 |  |  |  |  |
|  | CC(C)C(=O)N1CCCc2cc3c(c(Cl)c21)CCNCC3.Cl [Example 21] | 245 to 249 | 0.81 | 101 |  |  |
| 117 | CC(C)CN1CCOc2cc3c(cc21)CCNCC3 [Example 58] |  | 4 |  |  |  |
|  | CN1CCOc2cc3c(c(Br)c21)CCNCC3.O=C(O)/C=C/C(=O)O [Example 35] | 200 to 204 |  | 100 |  | 0.42 |
|  | COCCN1CCOc2c1cc1c(c2Cl)CCNCC1.O=C(O)CCC(=O)O | 139 to 141 |  |  |  |  |
|  | CC1(C)CCNc2cc3c(cc21)CCNCC3 [Example 159] | 288 to 290 |  |  |  |  |
|  | COc1ccc(F)cc1CN1CCOc2cc3c(c(C4CC4)c21)CCNCC3.O=C(O)/C=C/C(=O)O | 189 to 192 |  |  |  |  |
